This note sets out measurements from patent publication US20180344725A1, “QUINOLONE CHALCONE COMPOUNDS AND USES THEREOF” (priority 2015, published 2018).

One data set has as its system MCF10AT1. Description: SRB cell viability, isogenic breast cell lines. The format is cell-based. As to conditions: 0.39 μM, 72 hours. Here is the method: (§1) FIG. 9 illustrates that CTR-17, CTR-20, CTR-21 and CTR-32 preferentially kill the fully malignant […] breast cancer cells over the pre-malignant MCF10AT1 and the non-malignant MCF-10A breast cells. Cells were treated with (A) CTR-17 at doses of 0.10, 0.39, 1.56 or 6.25 μM; (B) CTR-20 at doses of 0.10, 0.39, 1.56 or 6.25 μM; (C) CTR-21 at doses of 7.81, 15.63, 31.25, 62.5, 125 or 250 nM; or (D) CTR-32 at doses of 7.81, 15.63, 31.25, 62.5, 125 or 250 nM for 72 hours. Cell viability was determined using an SRB assay.
(§2) All of the cell lines used were purchased from ATCC and cultured in RPMI-1640 supplemented with 10% fetal bovine serum and antibiotics (100 units penicillin/100 μg/ml streptomycin), unless stated otherwise. 1845B5 and MCF-10A non-cancer breast cell lines were cultured in DME/F12 medium supplemented with 10% fetal bovine serum, antibiotics and growth factors. KB-3-1 is a human epidermal carcinoma cell line and KB-C-2 is its isogenic multidrug-resistant cell line with over-expressing ABCB1/P-gp. […] The human small cell lung carcinoma H69 cell line and its multidrug-resistant MRP1-overexpressing isogenic H69AR cell line were purchased from ATCC. The H69AR cell line was established in the presence of increasing concentrations of Adriamycin (doxorubicin). H69 cells grow as large multi-cell aggregates, making it difficult to accurately count cell numbers. Therefore, the cytotoxicity results obtained from H69AR cells were compared to SW1271, a small cell lung carcinoma cell line without a multidrug-resistant phenotype. The IL-6 dependent bortezomib-resistant ANBL6-BR cell line was further supplemented with 1 ng/ml of IL-6. The MCF10AT1 and MCF10CA1a cell lines are isogenic to the MCF10A cell line, and obtained from Dr. Valerie Weaver at the Center for Bioengineering and Tissue Regeneration, UCSF, CA, USA. MCF10AT1 is a premalignant cell line generated by transforming MCF10A with c-Ha-Ras; and MCF10CA1a was isolated by selecting malignant cells after MCF10AT1 cells were engrafted into mice (Liu & Lin 2004; Marella et al. 2009). The MCF10AT1 and MCF10CA1a cells were cultured in DMEM supplemented with 10% FBS (volume/volume). MDA-MB231TaxR cell line was generated in house by culturing MDA-MB231 cells in gradually increasing doses of paclitaxel over one-year period, and finally maintained at 100 nM paclitaxel. The drug-resistant cells were cultured in the absence of drug for at least one passage before carrying out experiments. All cells were maintained in a humidified incubator at 37° C. (5% CO2/95% air). Cell line authentication was performed using short tandem repeat (STR) profiling.
(§3) For (anti)proliferation assays, 4,000-5,000 cells/well of the 96-well clustered dish were incubated for 16 hours, as described previously (Hu et al., 2008; Skehan et al., 1990). After 16 hours, culture medium was replaced with fresh medium containing different dilutions of test compounds dissolved in DMSO. Some wells were treated with 100 μl of 10% trichloroacetic acid (TCA) as a negative control and sham (medium with dimethyl sulfoxide; DMSO) treated cells were used as a positive control. After 72 hours post-incubation, medium was removed and cells were fixed with 10% TCA at 4° C. for 1 hour. TCA was removed and cells were washed with cold tap water, and plate was air-dried, followed by addition of 50 μl of 0.4% SRB staining solution to each well. After 30 minutes incubation, SRB staining solution was removed. Cells were washed with 1% acetic acid solution, and then washed with tap water to remove unbound staining solution, followed by air-drying. 200 μl of 10 mM (pH10.5) trizma base buffer was added to each well to solubilise macromolecules. SRB stained macromolecules were determined at a 540 nm wavelength using an automated plate reader (Synergy H4 Hybrid Multi-Mode Microplate Reader, BioTek, Winooski, Vt.). Cell growth (inhibition) was calculated by the following formula: […]

In the next data set the test system is MDA-MB-231. The data set can be described thus: Immunofluorescent staining: centrosomes and chromosome segregation. To be noted: for ACS (abnormal chromosome segregation) / Monopolar centrosome: MDA-MB-231, 3 μM. In kind it is cell-based, human. Here is the method: Cells on coverslips placed on the bottom of 35 mm tissue culture plates or 6-well clustered dishes were treated for 12-24 hours with the CTR compounds to be tested. Subsequently, the cells were fixed with 100% methanol for 15 minutes and washed with 1×PBS three times. Cells were then “blocked” with 3% BSA or 1% (v/v) FBS plus 1×PBST (1×PBS buffer containing 0.1% (v/v) Triton X-100 or 0.2% Tween 20), and incubated overnight at 4° C. with primary antibodies, with gentle agitation. Unbound primary antibodies were washed off with PBST, and a secondary antibody was added for 1 hour in the dark. Secondary antibodies were conjugated to Alexa 488 or 568. DNA was counterstained with DRAQ5 or DAPI. Subsequently, coverslips were washed three times with 1×PBST for 10 minutes each, followed by mounting them onto slides with 90% glycerol in 1×PBS. Each slide was visualized with a Carl Zeiss 510 Meta laser scanning microscope or an Axioscope. Image analysis was done with an LSM image examiner equipped with the microscopes (Carl Zeiss, Toronto, ON, Canada).
The cancer-specific increase of mitotic cells in response to CTR-17 was correlated with the accumulation of cells with monopolar centrosomes and abnormal chromosome alignment/segregation (FIG. 11, Table 5). Cells were either sham-treated or treated with 3.0 μM CTR-17 for 12 hours or 24 hours, followed by analyses of cell cycle progression, centrosome abnormalities, and chromosome alignment/segregation. […] The mitotic index was determined by fluorescence microscopic analysis of at least 200 cells for each cell type, and data was expressed as percentage mean±S.E.M. of at least two independent experiments.
Asynchronously growing cells were treated with 1 μM CTR-20 for 24 hours, followed by examining cells arrested in mitosis. The percentage of mitotic cells was calculated based on the examination of at least 250-400 cells. Cells treated with 1 μM CTR-20 for 24 hours on coverslips were fixed with ice-cold methanol, immunostained with an α-tubulin antibody, and then counterstained DNA with DRAQ5 prior to observing by florescent microscopy (Table 6). […] Similarly, cells treated with 1 μM CTR-20 accumulated monopolar centrosomes and defective chromosomal alignment and segregation in a cancer-specific manner.

Data set [1] deals with tubulin (vinblastine binding site). The data set can be described thus: BODIPY FL vinblastine competition assay. Further details: species or system porcine. To be noted: 25 μM; 5 μM BODIPY FL-vinblastine. The source says: For the vinblastine competition assay, fluorescence was monitored by excitation of the reaction mixture at 490 nm and the emission spectra at the 510-550 nm range.

Data set [2] in a line: SRB cell viability, isogenic breast cell lines. The format is cell-based. As to conditions: human, MCF10AT1 cells (pre-malignant breast cells), 31.25 nM. Here is the method: as §1, §2, §3

On to `COc1ccccc1C(=O)/C=C/c1cc2ccccc2[nH]c1=O` [CTR-17, (E)-3-(3-(2-Methoxyphenyl)-3-oxoprop-1-enyl)quinolin-2(1H)-one], for which, in the data set with MCF10AT1, the Cell survival rate is recorded as 60%. For the same molecule, in the data set on MDA-MB-231 (12 h post-treatment), the “ACS (abnormal chromosome segregation)” value is 60.0 ± 10.2% of total mitotic cells and the Monopolar centrosome is 40.0 ± 10.2% of total mitotic cells. Besides, in the data set with MDA-MB-231 (24 h post-treatment), the “ACS (abnormal chromosome segregation)” value is given as 55.1 ± 5.7% of total mitotic cells and the Monopolar centrosome is listed as 44.9 ± 5.7% of total mitotic cells. Besides, the “binding to the vinblastine binding site on the tubulin” value in data set [1] is on record as “did not bind to the vinblastine binding site”.
Regarding `COc1ccc2[nH]c(=O)c(/C=C/C(=O)c3ccccc3OC)cc2c1` [CTR-20, (E)-6-Methoxy-3-(3-(2-methoxyphenyl)-3-oxoprop-1-enyl) quinolin-2(1H)-one], in the data set with MCF10AT1, the Cell survival rate is recorded as 20%. In the data set on MDA-MB-231 (MB231, 1 μM, 24 hours), the “ACA/S (%) (abnormal chromosome alignment and segregation)” value came to 58.05 ± 6.21%; the “Monopolar (%)” value stood at 35.73 ± 5.59%. Besides, the “binding to the vinblastine binding site on the tubulin” value in data set [1] is given as “did not bind to the vinblastine binding site”.
Usually viability stands for a per cent measure of how many cells are alive, often set against a control. Regarding `COc1ccccc1C(=O)/C=C/c1cc2cccc(OC)c2[nH]c1=O` [CTR-21, (E)-8-methoxy-3-(3-(2-methoxyphenyl)-3-oxoprop-1-enyl) quinolin-2(1H)-one], in data set [2], the viability at 72 h, 0.03125 µM came to 24%.
`CCOc1ccccc1C(=O)/C=C/c1cc2ccccc2[nH]c1=O` [CTR-32, (E)-3-(3-(2-ethoxyphenyl)-3-oxoprop-1-enyl)quinolin-2(1H)-one]: the viability at 72 h, 0.03125 µM in data set [2] is 70%.
